Test [1] has as its target PI3Kα (p110[H1047R]/p85) kinase (Homo sapiens, UniProt P42336, H1047R). In words: PI3Kα (p110[H1047R]/p85) kinase ADP-Glo Assay. The note with it: 25 uM ATP; for selectivity: WT/H1047R: ADP-Glo Assay IC50 ratio. It is filed as biochemical. The procedure, abridged:
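PI3Kα H1047R/p85 pre-incubated 30 min at room temperature with PI(4,5)P2:PS substrate ([…]) and compound ([…]) in HEPES pH 7.5 buffer with MgCl2; ATP ([…]) then added for 120 min. ADP quantified by ADP-Glo luminescence; IC50 from four-parameter logistic fit.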

Test [2] has as its system PI3Kα H1047R mutated cell line T-47D. The experiment in a line: Phospho-AKT (Ser473) Inhibition Assay (HTRF), T-47D. It is filed as cell-based. The following applies: for IC50: Homo sapiens, T47D, T-47D, 1 hour treatment, read-out: p-AKT Inhibition assay (S473) IC50 T-47D; for Selectivity: SK-BR-3/T-47D (p-AKT): p-AKT (S473) IC50 ratio. The procedure, abridged:
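Cells seeded overnight in insulin-supplemented MEM, then treated 1 h with 11-point 1:3 compound dilutions (10 μM to 0.1 nM final, 0.1% DMSO). Lysates assayed for phospho-AKT Ser473 by HTRF; IC50 from 4-parameter logistic fit, normalised to DMSO (max) and 10 μM GDC0077 (min).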

Test [3] has as its system PI3Kα H1047R mutated cell line T-47D cells. In words: Cell Proliferation Assay (CellTiter-Glo), T-47D. The format is cell-based. The note with it: for IC50: Homo sapiens, T47D, 72 h, T-47D, 3 days treatment; for Selectivity: SK-BR-3/T-47D (cell proliferation): cell proliferation IC50 ratio. As to the method:
Cell Culture Maintenance. The T-47D (ATCC, HTB-133) cell line was obtained from the American Type Culture Collection. Cells were maintained in RPMI1640 medium (Gibco, REF #22400105) supplemented with 10% Fetal Bovine Serum (Gibco, REF #10091148). Cultures were maintained in a humidified incubator at 37° C. under 5% CO2/95% air.
Cell Proliferation Assay. PI3Kα H1047R mutated cell line T-47D cells and WT cell line SK-BR-3 were seeded at a density of 3×10^3 cells per well in 96 well plate (Xinyou Biotechnology, 062096) in 95 μL of culture medium, overnight. Compounds dissolved in 10 mM stock solutions in DMSO were serially diluted 1:3 in DMSO to generate a 9-point dilution series and plated using an INTEGRA ASSIST Plus pipetting robot. A 20× intermediate compound dilution plate in RPMI1640 medium (200 M starting compound concentration in 2% DMSO) was then prepared. Five μL of intermediate serially diluted compounds were added to the cell plate to final concentrations ranging from […] to 1 nM in 0.1% DMSO. 0.1% DMSO alone was used to establish the maximum signal and medium without cells was for minimum signal. After 3 days treatment, equilibrated the plate and its contents at room temperature for approximately 30 minutes. Added 30 μL CellTiter-Glo® Reagent (Promega, REF #G7571) to each well. Then mixed contents for 5 min on plate shaker to induce cell lysis. Incubated at room temperature for 10 minutes to stabilize luminescent signal. The plates were read on PHERAstar FSX Microplate reader using standard luminescence settings.
Relative IC50 values were determined using luminescence units by calculating percent inhibition with respect to the in-plate “MIN” (medium only) and “MAX” (0.1% DMSO) controls. The data were analyzed using a 4-parameter nonlinear logistic equation (four-parameter logistic concentration-response curve): Y=bottom+[(top−bottom)/1+(X/IC50) slope] • where Y=% inhibition, X=concentration of inhibitor, bottom=minimum value of y attained by curve-fit, top=maximum value of y attained by curve-fit and slope=steepness of curve at the IC50.

Chain of PI3Kα (p110[H1047R]/p85) kinase (P42336 whole entry H1047R): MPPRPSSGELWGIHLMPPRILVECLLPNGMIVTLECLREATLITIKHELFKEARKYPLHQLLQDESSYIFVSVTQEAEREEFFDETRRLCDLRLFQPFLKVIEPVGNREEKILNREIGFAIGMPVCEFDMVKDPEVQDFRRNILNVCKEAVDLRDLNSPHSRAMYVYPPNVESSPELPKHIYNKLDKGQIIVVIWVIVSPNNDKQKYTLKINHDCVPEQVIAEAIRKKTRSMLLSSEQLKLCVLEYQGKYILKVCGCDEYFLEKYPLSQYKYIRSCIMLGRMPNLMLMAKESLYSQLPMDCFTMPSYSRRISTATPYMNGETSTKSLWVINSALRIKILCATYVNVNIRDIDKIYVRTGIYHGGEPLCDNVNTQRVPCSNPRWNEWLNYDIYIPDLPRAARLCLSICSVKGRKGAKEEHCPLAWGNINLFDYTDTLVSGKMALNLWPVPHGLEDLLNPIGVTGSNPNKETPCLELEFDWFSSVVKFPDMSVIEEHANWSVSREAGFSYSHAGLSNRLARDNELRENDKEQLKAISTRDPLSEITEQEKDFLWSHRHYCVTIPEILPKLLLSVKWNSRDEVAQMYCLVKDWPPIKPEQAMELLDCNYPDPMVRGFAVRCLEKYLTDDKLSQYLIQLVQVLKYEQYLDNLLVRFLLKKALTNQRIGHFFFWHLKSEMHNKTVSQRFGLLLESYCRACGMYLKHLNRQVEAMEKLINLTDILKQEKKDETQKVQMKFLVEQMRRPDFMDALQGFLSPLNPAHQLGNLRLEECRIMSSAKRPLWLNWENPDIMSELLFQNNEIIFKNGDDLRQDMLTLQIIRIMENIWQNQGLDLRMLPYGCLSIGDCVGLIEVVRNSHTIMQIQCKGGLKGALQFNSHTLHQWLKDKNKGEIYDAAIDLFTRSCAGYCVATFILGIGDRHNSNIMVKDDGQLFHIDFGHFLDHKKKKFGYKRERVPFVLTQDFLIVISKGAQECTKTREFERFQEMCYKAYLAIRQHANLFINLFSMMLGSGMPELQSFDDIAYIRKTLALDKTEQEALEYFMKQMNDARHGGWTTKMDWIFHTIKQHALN
Chain of PI3Kα (p110[H1047R]/p85) kinase (P27986 whole entry partner): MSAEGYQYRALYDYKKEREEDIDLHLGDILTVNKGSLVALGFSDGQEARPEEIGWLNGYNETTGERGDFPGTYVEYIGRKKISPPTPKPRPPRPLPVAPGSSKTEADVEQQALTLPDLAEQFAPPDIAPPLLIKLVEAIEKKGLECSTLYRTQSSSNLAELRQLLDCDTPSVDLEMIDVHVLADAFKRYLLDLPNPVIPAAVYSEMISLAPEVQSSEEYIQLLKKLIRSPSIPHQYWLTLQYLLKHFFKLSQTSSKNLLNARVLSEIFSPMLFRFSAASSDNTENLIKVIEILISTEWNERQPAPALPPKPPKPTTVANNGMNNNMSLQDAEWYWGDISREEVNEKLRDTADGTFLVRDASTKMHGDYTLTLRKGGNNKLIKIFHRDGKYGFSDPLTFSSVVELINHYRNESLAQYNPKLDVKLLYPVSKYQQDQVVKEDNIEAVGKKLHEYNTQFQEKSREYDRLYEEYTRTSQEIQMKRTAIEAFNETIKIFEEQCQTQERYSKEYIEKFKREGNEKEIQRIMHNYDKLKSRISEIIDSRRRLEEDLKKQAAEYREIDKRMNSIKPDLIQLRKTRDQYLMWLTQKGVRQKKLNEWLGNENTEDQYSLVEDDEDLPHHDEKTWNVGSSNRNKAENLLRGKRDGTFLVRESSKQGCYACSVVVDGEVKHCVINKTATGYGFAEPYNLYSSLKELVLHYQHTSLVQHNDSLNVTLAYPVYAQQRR

Turning to `Cc1cc(C(C)Nc2ccccc2C(=O)O)c2cc(-c3cccc(F)c3F)n(C)c(=O)c2c1` (stereo not shown) [Example 12, 2-((1-(3-(2,3-difluorophenyl)-2,7-dimethyl-1-oxo-1,2-dihydroisoquinolin-5-yl)ethyl)amino)benzoic acid], in test [1], the IC50 worked out at 0.175 µM and the “selectivity: WT/H1047R” value is 38.2. In test [2], the concentration for half-maximal inhibition (IC50) worked out at 0.0553 µM and the “Selectivity: SK-BR-3/T-47D (p-AKT)” value turned out to be 39.0. Further, in test [3], the IC50 came out at 0.237 µM and the “Selectivity: SK-BR-3/T-47D (cell proliferation)” value is more than 42.

Consider `COc1cccc(-c2cc3c(C(C)Nc4ccccc4C(=O)O)cc(C)cc3c(=O)n2C)c1` (stereo not shown) [Example 13, 2-((1-(3-(3-methoxyphenyl)-2,7-dimethyl-1-oxo-1,2-dihydroisoquinolin-5-yl)ethyl)amino)benzoic acid], for which, in test [1], the IC50 is 0.192 µM and the “selectivity: WT/H1047R” value is recorded as 30.3. Besides, in test [2], the IC50 is 0.064 µM and the “Selectivity: SK-BR-3/T-47D (p-AKT)” value was 56.1. In test [3], the IC50 came to 0.233 µM and the “Selectivity: SK-BR-3/T-47D (cell proliferation)” value is more than 43.

As to `COc1ccc(-c2cc3c(C(C)Nc4ccccc4C(=O)O)cc(C)cc3c(=O)n2C)cc1` (stereo not shown) [Example 14, 2-((1-(3-(4-methoxyphenyl)-2,7-dimethyl-1-oxo-1,2-dihydroisoquinolin-5-yl)ethyl)amino)benzoic acid], in test [1], the IC50 came to 0.156 µM and the “selectivity: WT/H1047R” value was found to be 23.9. Moreover, in test [2], the IC50 worked out at 0.0632 µM and the “Selectivity: SK-BR-3/T-47D (p-AKT)” value was found to be 32.5. In test [3], the midpoint of inhibition, the IC50, lay at 0.232 µM and the “Selectivity: SK-BR-3/T-47D (cell proliferation)” value is more than 43.

For the molecule `COc1ccc(-c2cc3c(C(C)Nc4ccccc4C(=O)O)cc(C)cc3c(=O)n2C)cn1` (stereo not shown) [Example 15, 2-((1-(3-(6-methoxypyridin-3-yl)-2,7-dimethyl-1-oxo-1,2-dihydroisoquinolin-5-yl)ethyl)amino)benzoic acid], in test [1], half-maximal inhibition (IC50) required 0.858 µM and the “selectivity: WT/H1047R” value came out at 8.0. In test [2], the concentration for half-maximal inhibition (IC50) is 0.217 µM and the “Selectivity: SK-BR-3/T-47D (p-AKT)” value is 38.5. In test [3], half-maximal inhibition (IC50) was put at 0.112 µM and the “Selectivity: SK-BR-3/T-47D (cell proliferation)” value is recorded as more than 89.

For `Cc1cc(C(C)Nc2ccccc2C(=O)O)c2cc(-c3cnn(-c4ccc(C(N)=O)cn4)c3)n(C)c(=O)c2c1` (stereo not shown) [Example 16, 2-((1-(3-(1-(5-carbamoylpyridin-2-yl)-1H-pyrazol-4-yl)-2,7-dimethyl-1-oxo-1,2-dihydroisoquinolin-5-yl)ethyl)amino)benzoic acid], in test [1], inhibition was half-maximal at 0.24 µM (IC50) and the “selectivity: WT/H1047R” value was determined as 15.3. Besides, in test [2], the IC50 worked out at 1.58 µM and the “Selectivity: SK-BR-3/T-47D (p-AKT)” value was more than 6.3. Besides, in test [3], the IC50 came to 0.591 µM and the “Selectivity: SK-BR-3/T-47D (cell proliferation)” value is reported as more than 17.

On to `Cc1cc(C(C)Nc2ccccc2C(=O)O)c2cc(-c3nc4ccccc4s3)n(C)c(=O)c2c1` (stereo not shown) [Example 17, 2-((1-(3-(benzo[d]thiazol-2-yl)-2,7-dimethyl-1-oxo-1,2-dihydroisoquinolin-5-yl)ethyl)amino)benzoic acid], for which, in test [1], the IC50 was 0.255 µM and the “selectivity: WT/H1047R” value stood at 30.5. In test [2], the IC50 is 0.0588 µM and the “Selectivity: SK-BR-3/T-47D (p-AKT)” value turned out to be 13.5. Further, in test [3], half-maximal inhibition (IC50) was put at 0.746 µM and the “Selectivity: SK-BR-3/T-47D (cell proliferation)” value was more than 13.

As for `Cc1cc(C(C)Nc2ccccc2C(=O)O)c2cc(-c3ccc4nc(C)sc4c3)n(C)c(=O)c2c1` (stereo not shown) [Example 18, 2-((1-(2,7-dimethyl-3-(2-methylbenzo[d]thiazol-6-yl)-1-oxo-1,2-dihydroisoquinolin-5-yl)ethyl)amino)benzoic acid], in test [1], the IC50 came out at 0.272 µM and the “selectivity: WT/H1047R” value amounted to 16.1. Further, in test [2], the IC50 came out at 0.0851 µM and the “Selectivity: SK-BR-3/T-47D (p-AKT)” value is reported as 27.3. Besides, in test [3], the IC50 was 0.222 µM and the “Selectivity: SK-BR-3/T-47D (cell proliferation)” value is more than 45.

For the molecule `Cc1cc(C(C)Nc2ccccc2C(=O)O)c2cc(-c3ccc4nn(C)cc4c3)n(C)c(=O)c2c1` (stereo not shown) [Example 19, 2-((1-(2,7-dimethyl-3-(2-methyl-2H-indazol-5-yl)-1-oxo-1,2-dihydroisoquinolin-5-yl)ethyl)amino)benzoic acid], in test [1], it took 0.311 µM to reach half-maximal inhibition (IC50) and the “selectivity: WT/H1047R” value worked out at 21.1. For the same molecule, in test [2], the IC50 was 0.166 µM and the “Selectivity: SK-BR-3/T-47D (p-AKT)” value was determined as 13.8. In addition, in test [3], the IC50 came to 0.116 µM and the “Selectivity: SK-BR-3/T-47D (cell proliferation)” value is listed as more than 86.

On to `CC(Nc1ccccc1C(=O)O)c1cccc2c(=O)n(C)c(-c3ccccc3)cc12` (stereo not shown) [Example 20, 2-((1-(2-methyl-1-oxo-3-phenyl-1,2-dihydroisoquinolin-5-yl)ethyl)amino)benzoic acid], for which, in test [1], the IC50 stood at 0.093 µM and the “selectivity: WT/H1047R” value stood at 108.4. In test [2], the IC50 came out at 0.0241 µM and the “Selectivity: SK-BR-3/T-47D (p-AKT)” value is reported as more than 416. In test [3], the IC50 came to 0.934 µM and the “Selectivity: SK-BR-3/T-47D (cell proliferation)” value is on record as more than 10.7.

For the molecule `CC(Nc1ccccc1C(=O)O)c1cccc2c(=O)n(C)c(C#Cc3ccccc3)cc12` (stereo not shown) [Example 21, 2-((1-(2-methyl-1-oxo-3-(phenylethynyl)-1,2-dihydroisoquinolin-5-yl)ethyl)amino)benzoic acid], in test [1], the IC50 turned out to be 0.121 µM and the “selectivity: WT/H1047R” value was determined as 11.1. In addition, in test [2], the IC50 amounted to 0.0355 µM and the “Selectivity: SK-BR-3/T-47D (p-AKT)” value is recorded as 165.3. Besides, in test [3], the IC50 turned out to be 2.54 µM and the “Selectivity: SK-BR-3/T-47D (cell proliferation)” value is reported as more than 3.93.

`Cc1cc(C(C)Nc2ccccc2C(=O)O)c2cc(-c3cccc4cn(C)nc34)n(C)c(=O)c2c1` (stereo not shown) [Example 22, 2-((1-(2,7-dimethyl-3-(2-methyl-2H-indazol-7-yl)-1-oxo-1,2-dihydroisoquinolin-5-yl)ethyl)amino)benzoic acid]: the IC50 in test [1] was 1.73 µM; in test [2] it was 1.75 µM; in test [3], more than 10 µM. For the same molecule, the “selectivity: WT/H1047R” value in test [1] came out at 30.3. Moreover, the “Selectivity: SK-BR-3/T-47D (p-AKT)” value in test [2] is given as more than 5.7.

With `Cc1cc(C(C)Nc2ccccc2C(=O)O)c2cc(-c3ccc(-c4cnn(C)c4)cc3)n(C)c(=O)c2c1` (stereo not shown) [Example 23, 2-((1-(2,7-dimethyl-3-(4-(1-methyl-1H-pyrazol-4-yl)phenyl)-1-oxo-1,2-dihydroisoquinolin-5-yl)ethyl)amino)benzoic acid], in test [1], the IC50 is 0.223 µM and the “selectivity: WT/H1047R” value was determined as 9.1. In test [2], the IC50 amounted to 0.103 µM and the “Selectivity: SK-BR-3/T-47D (p-AKT)” value was determined as 16.6. In addition, in test [3], the IC50 came to 0.147 µM and the “Selectivity: SK-BR-3/T-47D (cell proliferation)” value is more than 68.

Take `Cc1cc(C(C)Nc2ccccc2C(=O)O)c2cc(NC(=O)c3ccccc3)n(C)c(=O)c2c1` (stereo not shown) [Example 24, 2-((1-(3-benzamido-2,7-dimethyl-1-oxo-1,2-dihydroisoquinolin-5-yl)ethyl)amino)benzoic acid]: in test [1], the IC50 worked out at 1.03 µM and the “selectivity: WT/H1047R” value amounted to 38.2. For the same molecule, in test [2], the IC50 came to 3.14 µM and the “Selectivity: SK-BR-3/T-47D (p-AKT)” value is reported as more than 3.1. In test [3], 9.34 µM corresponded to half-maximal inhibition (IC50) and the “Selectivity: SK-BR-3/T-47D (cell proliferation)” value is reported as more than 1.07.

Take `CC(Nc1ccccc1C(=O)O)c1cccn2c(=O)cc(-c3ccccc3)cc12` (stereo not shown) [Example 25, 2-((1-(4-oxo-2-phenyl-4H-quinolizin-9-yl)ethyl)amino)benzoic acid]: in test [1], the IC50 came to 0.229 µM and the “selectivity: WT/H1047R” value came to 104.0. In test [2], the IC50 worked out at 0.299 µM and the “Selectivity: SK-BR-3/T-47D (p-AKT)” value is more than 33.4. The IC50 in test [3] was more than 10 µM.

As for `Cc1cc([C@@H](C)Nc2ccccc2C(=O)O)c2cc(-c3ccccc3)n(C)c(=O)c2c1` [Example 30, (R)-2-((1-(2,7-dimethyl-1-oxo-3-phenyl-1,2-dihydroisoquinolin-5-yl)ethyl)amino)benzoic acid], in test [1], the IC50 came to 0.104 µM and the “selectivity: WT/H1047R” value was found to be 24.1. In test [2], the IC50 is 0.022 µM and the “Selectivity: SK-BR-3/T-47D (p-AKT)” value was determined as 113.7. Moreover, in test [3], the IC50 turned out to be 0.177 µM and the “Selectivity: SK-BR-3/T-47D (cell proliferation)” value is more than 57.

The values are drawn from patent US20260125346A1, “Isoquinolinone Derivatives and 4H-Quinolizinone Derivatives and Pharmaceutical Compositions Thereof for the Treatment of Disease” (BeOne Medicines I GmbH, priority 2023, published 2026).
